Read-outs that look alike come from different tables or passages of the source.
Tests used:
A-549 = assay: cells
Experimental: (§1) This form of the assay employs 96 well cell culture microplates of 9 mm diameter (Faircloth, 1988; Mosmann, 1983). Most of the cell lines are obtained from American Type Culture Collection (ATCC) derived from different human cancer types.
(§2) Cells are maintained in RPMI 1640 10% FBS, supplemented with 0.1 g/l penicillin and 0.1 g/l streptomycin sulfate and then incubated at 37° C., 5% CO2 and 98% humidity. For the experiments, cells were harvested from subconfluent cultures using trypsin and resuspended in fresh medium before plating.
(§3) Cells are seeded in 96 well microtiter plates, at 5×10^3 cells per well in aliquots of 195 μl medium, and they are allowed to attach to the plate surface by growing in drug free medium for 18 hours. Afterward, samples are added in aliquots of 5 μl in a ranging from 10 to 10^−8 μg/ml, dissolved in DMSO/EtOH/PBS (0.5:0.5:99). After 48 hours exposure, the antitumor effect are measured by the SRB methodology: cells are fixed by adding 50 μl of cold 50% (wt/vol) trichloroacetic acid (TCA) and incubating for 60 minutes at 4° C. Plates are washed with deionized water and dried. One hundred μl of SRB solution (0.4% wt/vol in 1% acetic acid) is added to each microtiter well and incubated for 10 minutes at room temperature. Unbound SRB is removed by washing with 1% acetic acid. Plates are air dried and bound stain is solubilzed with Tris buffer. Optical densities are read on a automated spectrophotometric plate reader at a single wavelength of 490 nm.
(§4) The values for mean +/− SD of data from triplicate wells are calculated. Some parameters for cellular responses can be calculated: GI=growth inhibition, TGI=total growth inhibition (cytostatic effect) and LC=cell killing (cytotoxic effect).

HT-29 = assay: cells
Experimental: as §1, §2, §3, §4

K-562 = assay: Inhibition of cells growth by colorimetric assay (SRB); settings: Homo sapiens, K562, 48 h, read-out: GI50 K562
Experimental: as §1, §2, §3, §4

LNCaP = assay: as above; settings: Homo sapiens, LNCaP, 48 h, read-out: GI50 LNCAP
Experimental: as §1, §2, §3, §4

[1] = Homo sapiens, A549, 48 h, read-out: GI50 A549
[2] = Homo sapiens, A549, 48 h, read-out: LC50 A549
[3] = Homo sapiens, A549, 48 h, read-out: TGI A549
[4] = Homo sapiens, HT-29, 48 h, read-out: GI50 HT29
[5] = Homo sapiens, HT-29, 48 h, read-out: LC50 HT29
[6] = Homo sapiens, HT-29, 48 h, read-out: TGI HT29
[7] = Homo sapiens, A549, 48 h, read-out: A549 GI50
[8] = Homo sapiens, A549, 48 h, read-out: A549 LC50
[9] = Homo sapiens, A549, 48 h, read-out: A549 TGI
[10] = Homo sapiens, HT-29, 48 h, read-out: HT29 GI50
[11] = Homo sapiens, HT-29, 48 h, read-out: HT29 LC50
[12] = Homo sapiens, HT-29, 48 h, read-out: HT29 TGI

Compound: C=CCOc1c(C)c2c(c3c1CC1[C@H]4c5c(cc(C)c(OC)c5O)C[C@@H]([C@H](C#N)N1[C@H]3CO[Si](c1ccccc1)(c1ccccc1)C(C)(C)C)N4C)OCO2 (some centres unmarked) [compound 3]
- GI50 (A-549; [1]): 4.18 µM
- CC50 (A-549; [2]): 13.2 µM
- IC (TGI) (A-549; [3]): 13 µM
- GI50 (HT-29; [4]): 4.01 µM
- CC50 (HT-29; [5]): 13.2 µM
- IC (TGI) (HT-29; [6]): 12.3 µM

Compound: C=CCOc1c(C)c2c(c3c1CC1[C@H]4c5c(cc(C)c(OC)c5OCOCCOC)C[C@@H]([C@H](C#N)N1[C@H]3CO[Si](c1ccccc1)(c1ccccc1)C(C)(C)C)N4C)OCO2 (some centres unmarked) [compound 4]
- GI50 (A-549; [1]): 2.36 µM
- CC50 (A-549; [2]): 11.8 µM
- IC (TGI) (A-549; [3]): 8.27 µM
- GI50 (HT-29; [4]): 0.591 µM
- CC50 (HT-29; [5]): 11.8 µM
- IC (TGI) (HT-29; [6]): 1.18 µM

Compound: C=CCOc1c(C)c2c(c3c1CC1[C@@H]4N[C@@H](Cc5cc(C)c(OC)c(OCOCCOC)c54)[C@H](C#N)N1[C@H]3CO[Si](c1ccccc1)(c1ccccc1)C(C)(C)C)OCO2 (some centres unmarked) [compound 5]
- GI50 (A-549; [1]): 0.721 µM
- CC50 (A-549; [2]): 8.41 µM
- IC (TGI) (A-549; [3]): 2.4 µM
- GI50 (HT-29; [4]): 0.481 µM
- CC50 (HT-29; [5]): 6.01 µM
- IC (TGI) (HT-29; [6]): 1.2 µM

Compound: COCCOCOc1c(OC)c(C)cc2c1[C@H]1N[C@@H](C2)[C@H](C#N)N2C1Cc1c(O)c(C)c3c(c1[C@@H]2CO[Si](c1ccccc1)(c1ccccc1)C(C)(C)C)OCO3 (some centres unmarked) [compound 6]
- GI50 (A-549; [1]): 6.65 µM
- CC50 (A-549; [2]): 12.6 µM
- IC (TGI) (A-549; [3]): 12.6 µM
- GI50 (HT-29; [4]): 12.5 µM
- CC50 (HT-29; [5]): 12.6 µM
- IC (TGI) (HT-29; [6]): 12.6 µM

Compound: COCCOCOc1c(OC)c(C)cc2c1[C@H]1N[C@@H](C2)[C@H](C#N)N2C1CC1(O)C(=O)C(C)=C3OCOC3=C1[C@@H]2CO[Si](c1ccccc1)(c1ccccc1)C(C)(C)C (some centres unmarked) [compound 7]
- TGI A549 (A-549; A549, SRB, 48 hours exposure): 3.51E−06 Molar
- GI50 (A-549; read-out: GI50 A549, A549, SRB, 48 hours exposure): 1.87 µM
- CC50 (A-549; read-out: LC50 A549, A549, SRB, 48 hours exposure): 6.61 µM
- TGI HT29 (HT-29; HT29, SRB, 48 hours exposure): 2.40E−06 Molar
- GI50 (HT-29; read-out: GI50 HT29, HT29, SRB, 48 hours exposure): 0.918 µM
- CC50 (HT-29; read-out: LC50 HT29, HT29, SRB, 48 hours exposure): 5.46 µM

Compound: C=CCN1[C@@H]2c3c(cc(C)c(OC)c3OCOCCOC)C[C@H]1[C@H](C#N)N1C2CC2(O)C(=O)C(C)=C3OCOC3=C2[C@@H]1CO[Si](c1ccccc1)(c1ccccc1)C(C)(C)C (some centres unmarked) [compound 8]
- GI50 (A-549; [1]): 11.8 µM
- CC50 (A-549; [2]): 11.8 µM
- IC (TGI) (A-549; [3]): 11.8 µM
- GI50 (HT-29; [4]): 7.82 µM
- CC50 (HT-29; [5]): 11.8 µM
- IC (TGI) (HT-29; [6]): 11.8 µM

Compound: C=CCN1[C@@H]2c3c(cc(C)c(OC)c3OCOCCOC)C[C@H]1[C@H](C#N)N1C2CC2(O)C(=O)C(C)=C3OCOC3=C2[C@@H]1CO (some centres unmarked) [compound 9]
- GI50 (A-549; [1]): 16.4 µM
- CC50 (A-549; [2]): 16.4 µM
- IC (TGI) (A-549; [3]): 16.4 µM
- GI50 (HT-29; [4]): 16.4 µM
- CC50 (HT-29; [5]): 16.4 µM
- IC (TGI) (HT-29; [6]): 16.4 µM

Compound: C=CCN1[C@@H]2c3c(cc(C)c(OC)c3OCOCCOC)C[C@H]1[C@H](C#N)N1C2[C@@H]2SC[C@@H](NC(=O)OC(C)(C)C)C(=O)OC[C@H]1c1c3c(c(C)c(OC(C)=O)c12)OCO3 (some centres unmarked) [compound 11]
- GI50 (K-562): 4.76 µM
- GI50 (LNCaP): 5.84 µM

Compound: COc1cc2c(cc1O)CCN[C@]21C[S+]([O-])[C@@H]2c3c(OC(C)=O)c(C)c4c(c3[C@H](COC1=O)N1C2C2c3c(cc(C)c(OC)c3O)C[C@@H]([C@@H]1C#N)N2C)OCO4 (some centres unmarked) [compound 17]
- GI50 (A-549; [1]): 0.0229 µM
- CC50 (A-549; [2]): 0.117 µM
- IC (TGI) (A-549; [3]): 0.0521 µM
- GI50 (HT-29; [4]): 0.0391 µM
- CC50 (HT-29; [5]): 12.7 µM
- IC (TGI) (HT-29; [6]): 0.086 µM

Compound: COc1c(C)cc2c(c1O)[C@@H]1C3[C@@H]4SCC(N)C(=O)OC[C@@H](c5c6c(c(C)c(OC(C)=O)c54)OCO6)N3[C@@H](C#N)C(C2)N1C (some centres unmarked) [compound 18]
- GI50 (A-549; [1]): 0.161 µM
- CC50 (A-549; [2]): 8.04 µM
- IC (TGI) (A-549; [3]): 0.643 µM
- GI50 (HT-29; [4]): 0.0804 µM
- CC50 (HT-29; [5]): 80.4 µM
- IC (TGI) (HT-29; [6]): 0.643 µM

Compound: C=CCOc1c(C)c2c(c3c1CC1[C@H]4c5c(cc(C)c(OC)c5O)C[C@@H]([C@H](C#N)N1[C@H]3CNC(=O)[C@H](CSCC1c3ccccc3-c3ccccc31)NC(=O)OC(C)(C)C)N4C)OCO2 (some centres unmarked) [compound 69]
- GI50 (A-549; [7]): 5.57 µM
- CC50 (A-549; [8]): 55.7 µM
- IC (TGI) (A-549; [9]): 22.3 µM
- GI50 (HT-29; [10]): 1.11 µM
- CC50 (HT-29; [11]): 11.1 µM
- IC (TGI) (HT-29; [12]): 1.11 µM

Compound: C=CCOc1c(C)c2c(c3c1CC1[C@H]4c5c(cc(C)c(OC)c5OCOCCOC)C[C@@H]([C@H](C#N)N1[C@H]3CNC(=O)[C@H](CSCC1c3ccccc3-c3ccccc31)NC(=O)OC(C)(C)C)N4C)OCO2 (some centres unmarked) [compound 70]
- GI50 (A-549; [7]): 5.06 µM
- CC50 (A-549; [8]): 50.6 µM
- IC (TGI) (A-549; [9]): 50.6 µM
- GI50 (HT-29; [10]): 10.1 µM
- CC50 (HT-29; [11]): 50.6 µM
- IC (TGI) (HT-29; [12]): 10.1 µM

Compound: COCCOCOc1c(OC)c(C)cc2c1[C@@H]1C3CC4(O)C(=O)C(C)=C5OCOC5=C4[C@H](CNC(=O)[C@H](CSCC4c5ccccc5-c5ccccc54)NC(=O)OC(C)(C)C)N3[C@@H](C#N)[C@H](C2)N1C (some centres unmarked) [compound 72]
- GI50 (A-549; [7]): 0.0519 µM
- CC50 (A-549; [8]): 4.15 µM
- IC (TGI) (A-549; [9]): 0.104 µM
- GI50 (HT-29; [10]): 1.04 µM
- CC50 (HT-29; [11]): 5.19 µM
- IC (TGI) (HT-29; [12]): 1.04 µM

From patent US7767659B2, “Synthesis of naturally occurring ecteinascidins and related compounds” (Pharma Mar, S.A., priority 2002, dated 2010)
